Laboratory results taken from publication PMC10656490, “Sequence-based prediction of the intrinsic solubility of peptides containing non-natural amino acids” (Nature Communications, 2023).
Like-named read-outs stand apart in the source and are kept apart here. Where a SMILES comes first, the peptide text is derived from it. [ ]: non-standard residue; d: D form. Cha = N[C@@H](CC1CCCCC1)C(=O)O; Cit = NC(=O)NCCC[C@H](N)C(=O)O; Nle = CCCC[C@H](N)C(=O)O; Aib = CC(C)(N)C(=O)O

Experiment: Solubility by ultracentrifugation (GLP-1 variants)
Format: physicochemical
Details: for solubility: 10 mM citrate 10 mM phosphate buffer, pH 7, GLP-1 variants, 2 mg/mL in 10 mM citrate 10 mM phosphate pH 7, 30 min 500,000 g 4 °C
Description: Relative solubility was measured using a recently developed PEG precipitation assay. For all PYY variants the standard assay worked well, and no changes had to be implemented (Fig. 2a). […] Moreover, to ensure that the results stemming from the AMS assay are consistent and reliable, we performed the 18 A experiments twice independently on different days. The results confirmed that they are indeed replicable, and we were therefore confident to use them for the validation of our approach (Supplementary Fig. 3). […] Even at final concentrations of 0.33 mg/mL (instead of 1 mg/mL) most variants remained insoluble. We used ultracentrifugation to determine the relative solubilities of the GLP-1 variants (Table 3). To confirm the reliability of this method we replicated the results on a different day with the same stock solutions (Supplementary Fig. 4).
Aliquots of 1 mg were prepared from the purified and lyophilised stocks. […] Briefly, a precipitant is titrated in increasing concentration to a fixed concentration of protein to induce precipitation of the protein. The samples are incubated for 48 h at 4° after mixing. The samples are centrifuged and the remaining protein concentration is measured in the supernatant using a plate reader. PYY and 18 A variants were dissolved in 10 mM citrate 10 mM phosphate buffer at pH 7 for a final concentration of 3 mg/mL. The assay was run with 50% 6000 PEG for PYY and with 3.8 M AMS for 18 A. To improve throughput, a multichannel robot was employed to measure several peptides at once with the workflow being kept the same as described previously. […] 120 µL of each sample were centrifuged using an OptimaTLX Ultracentrifuge and spinning for 30 min at 500,000 g at 4 °C. The supernatant was removed, and the peptide concentration was measured using a NanoDrop.

[1] = run 1, read-out: Run 1 solubility (peptide concentration in supernatant)
[2] = run 2, read-out: Run 2 solubility (peptide concentration in supernatant)
[3] = GLP1 variants, Figure 3c, in mg/mL
[4] = source data Supplementary Fig. 4, GLP-1 variants, 2 stands where Table 3 prints S, in mg/mL

| Molecule | solubility [1] [µg/mL] | solubility [2] [µg/mL] | Ultracentrifugation [3] | First Run [4] | Second Run [4] | First Run | Second Run | Ultracentrifugation |
| --- | --- | --- | --- | --- | --- | --- | --- | --- |
| CC[C@H](C)[C@H](NC(=O)[C@H](Cc1ccccc1)NC(=O)[C@H](CCC(=O)O)NC(=O)[C@H](CCCCN)NC(=O)[C@H](C)NC(=O)[C@H](C)NC(=O)[C@H](CCC(N)=O)NC(=O)CNC(=O)[C@H](CCC(=O)O)NC(=O)[C@H](CC(C)C)NC(=O)[C@H](Cc1ccc(O)cc1)NC(=O)[C@H](CO)NC(=O)[C@H](CO)NC(=O)[C@@H](NC(=O)[C@H](CC(=O)O)NC(=O)[C@H](CO)NC(=O)[C@@H](NC(=O)[C@H](Cc1ccccc1)NC(=O)[C@@H](NC(=O)CNC(=O)[C@H](CCC(=O)O)NC(=O)[C@H](C)NC(=O)[C@@H](N)Cc1c[nH]cn1)[C@@H](C)O)[C@@H](C)O)C(C)C)C(=O)N[C@@H](C)C(=O)N[C@@H](Cc1c[nH]c2ccccc12)C(=O)N[C@@H](CC(C)C)C(=O)N[C@H](C(=O)N[C@@H](CCCCN)C(=O)NCC(=O)N[C@@H](CCCNC(=N)N)C(N)=O)C(C)C [Compound 1, reference compound] |  |  | 0.9813 | 0.5803 | 1.382 |  |  |  |
| CC[C@H](C)[C@H](NC(=O)[C@H](Cc1ccccc1)NC(=O)[C@H](CCC(=O)O)NC(=O)[C@H](CCCCN)NC(=O)[C@H](C)NC(=O)[C@H](CC1CCCCC1)NC(=O)[C@H](CCC(N)=O)NC(=O)CNC(=O)[C@H](CCC(=O)O)NC(=O)[C@H](CC(C)C)NC(=O)[C@H](Cc1ccc(O)cc1)NC(=O)[C@H](CO)NC(=O)[C@H](CO)NC(=O)[C@@H](NC(=O)[C@H](CC(=O)O)NC(=O)[C@H](CO)NC(=O)[C@@H](NC(=O)[C@H](Cc1ccccc1)NC(=O)[C@@H](NC(=O)CNC(=O)[C@H](CCC(=O)O)NC(=O)[C@H](C)NC(=O)[C@@H](N)Cc1c[nH]cn1)[C@@H](C)O)[C@@H](C)O)C(C)C)C(=O)N[C@@H](C)C(=O)N[C@@H](Cc1c[nH]c2ccccc12)C(=O)N[C@@H](CC(C)C)C(=O)N[C@H](C(=O)N[C@@H](CCCCN)C(=O)NCC(=O)N[C@@H](CCCNC(=N)N)C(N)=O)C(C)C [Compound 2] (H-HAEGTFTSDVSSYLEGQ[Cha]AKEFIAWLVKGR-NH2; N-terminus assumed) |  |  | 0 | 0 | 0 |  |  |  |
| CCCC[C@H](NC(=O)[C@H](CCC(N)=O)NC(=O)CNC(=O)[C@H](CCC(=O)O)NC(=O)[C@H](CC(C)C)NC(=O)[C@H](Cc1ccc(O)cc1)NC(=O)[C@H](CO)NC(=O)[C@H](CO)NC(=O)[C@@H](NC(=O)[C@H](CC(=O)O)NC(=O)[C@H](CO)NC(=O)[C@@H](NC(=O)[C@H](Cc1ccccc1)NC(=O)[C@@H](NC(=O)CNC(=O)[C@H](CCC(=O)O)NC(=O)[C@H](C)NC(=O)[C@@H](N)Cc1c[nH]cn1)[C@@H](C)O)[C@@H](C)O)C(C)C)C(=O)N[C@@H](C)C(=O)N[C@@H](CCCCN)C(=O)N[C@@H](CCC(=O)O)C(=O)N[C@@H](Cc1ccccc1)C(=O)N[C@H](C(=O)N[C@@H](C)C(=O)N[C@@H](Cc1c[nH]c2ccccc12)C(=O)N[C@@H](CC(C)C)C(=O)N[C@H](C(=O)N[C@@H](CCCCN)C(=O)NCC(=O)N[C@@H](CCCNC(=N)N)C(N)=O)C(C)C)[C@@H](C)CC [Compound 3] (H-HAEGTFTSDVSSYLEGQ[Nle]AKEFIAWLVKGR-NH2; N-terminus assumed) | 90 | 160 | 0.1242 | 0.086 | 0.1624 |  |  |  |
| HAEGTFTS[CHA]VSSYLEGQAAK[NAC]FIAWLVKGR [Compound 9] |  |  |  |  |  | 0 | 0 | 0 |

Further lines, results first:

| solubility [1] [µg/mL] | solubility [2] [µg/mL] | Ultracentrifugation [3] | First Run [4] | Second Run [4] | First Run | Second Run | Ultracentrifugation | Molecule |
| --- | --- | --- | --- | --- | --- | --- | --- | --- |
| 840 | 820 | 0.8319 | 0.8416 | 0.8222 |  |  |  | CC[C@H](C)[C@H](NC(=O)[C@H](Cc1ccccc1)NC(=O)[C@H](CCC(=O)O)NC(=O)[C@H](CCCCN)NC(=O)[C@H](C)NC(=O)[C@H](CC1CCCCC1)NC(=O)[C@H](CCC(N)=O)NC(=O)CNC(=O)[C@H](CCC(=O)O)NC(=O)[C@H](CC(C)C)NC(=O)[C@H](Cc1ccc(O)cc1)NC(=O)[C@H](CO)NC(=O)[C@H](CO)NC(=O)[C@@H](NC(=O)[C@H](CC(=O)O)NC(=O)[C@H](CO)NC(=O)[C@@H](NC(=O)[C@H](Cc1ccccc1)NC(=O)[C@@H](NC(=O)CNC(=O)[C@H](CCC(=O)O)NC(=O)[C@H](C)NC(=O)[C@@H](N)Cc1c[nH]cn1)[C@@H](C)O)[C@@H](C)O)C(C)C)C(=O)N[C@@H](C)C(=O)N[C@@H](Cc1c[nH]c2ccccc12)C(=O)N[C@@H](CC(C)C)C(=O)N[C@H](C(=O)N[C@@H](CCCCN)C(=O)NCC(=O)N[C@@H](CCCNC(N)=O)C(N)=O)C(C)C [Compound 7] (H-HAEGTFTSDVSSYLEGQ[Cha]AKEFIAWLVKG[Cit]-NH2; N-terminus assumed) |
| 90 | 70 | 0.08054 | 0.09475 | 0.06633 |  |  |  | CC[C@H](C)[C@H](NC(=O)[C@H](Cc1ccccc1)NC(=O)[C@H](CCC(=O)O)NC(=O)[C@H](CCCCN)NC(=O)[C@H](C)NC(=O)C(C)(C)NC(=O)[C@H](CCC(N)=O)NC(=O)CNC(=O)[C@H](CCC(=O)O)NC(=O)[C@H](CC(C)C)NC(=O)[C@H](Cc1ccc(O)cc1)NC(=O)[C@H](CO)NC(=O)[C@H](CO)NC(=O)[C@@H](NC(=O)[C@H](CC(=O)O)NC(=O)[C@H](CO)NC(=O)[C@@H](NC(=O)[C@H](Cc1ccccc1)NC(=O)[C@@H](NC(=O)CNC(=O)[C@H](CCC(=O)O)NC(=O)[C@H](C)NC(=O)[C@@H](N)Cc1c[nH]cn1)[C@@H](C)O)[C@@H](C)O)C(C)C)C(=O)N[C@@H](C)C(=O)N[C@@H](Cc1c[nH]c2ccccc12)C(=O)N[C@@H](CC(C)C)C(=O)N[C@H](C(=O)N[C@@H](CCCCN)C(=O)NCC(=O)N[C@@H](CCCNC(=N)N)C(N)=O)C(C)C [Compound 5] (H-HAEGTFTSDVSSYLEGQ[Aib]AKEFIAWLVKGR-NH2; N-terminus assumed) |
| > 2000 | > 2000 | 2 | 2 | 2 |  |  |  | CC[C@H](C)[C@H](NC(=O)[C@H](Cc1ccccc1)NC(=O)[C@H](CCC(=O)O)NC(=O)[C@H](CCCCN)NC(=O)[C@H](C)NC(=O)[C@H](CCCCNC(C)=O)NC(=O)[C@H](CCC(N)=O)NC(=O)CNC(=O)[C@H](CCC(=O)O)NC(=O)[C@H](CC(C)C)NC(=O)[C@H](Cc1ccc(O)cc1)NC(=O)[C@H](CO)NC(=O)[C@H](CO)NC(=O)[C@@H](NC(=O)[C@H](CC(=O)O)NC(=O)[C@H](CO)NC(=O)[C@@H](NC(=O)[C@H](Cc1ccccc1)NC(=O)[C@@H](NC(=O)CNC(=O)[C@H](CCC(=O)O)NC(=O)[C@H](C)NC(=O)[C@@H](N)Cc1c[nH]cn1)[C@@H](C)O)[C@@H](C)O)C(C)C)C(=O)N[C@@H](C)C(=O)N[C@@H](Cc1c[nH]c2ccccc12)C(=O)N[C@@H](CC(C)C)C(=O)N[C@H](C(=O)N[C@@H](CCCCN)C(=O)NCC(=O)N[C@@H](CCCNC(=N)N)C(N)=O)C(C)C [Compound 4] (H-HAEGTFTSDVSSYLEGQK(Ac)AKEFIAWLVKGR-NH2; N-terminus assumed) |
| 150 | 120 | 0.1367 | 0.15 | 0.1234 |  |  |  | CCCC[C@H](NC(=O)[C@H](CCC(=O)O)NC(=O)[C@H](C)NC(=O)[C@@H](N)Cc1c[nH]cn1)C(=O)N[C@H](C(=O)N[C@@H](Cc1ccccc1)C(=O)N[C@H](C(=O)N[C@@H](CO)C(=O)N[C@@H](CC(=O)O)C(=O)N[C@H](C(=O)N[C@@H](CO)C(=O)N[C@@H](CO)C(=O)N[C@@H](Cc1ccc(O)cc1)C(=O)N[C@@H](CC(C)C)C(=O)N[C@@H](CCC(=O)O)C(=O)NCC(=O)N[C@@H](CCCNC(N)=O)C(=O)N[C@@H](C)C(=O)N[C@@H](C)C(=O)N[C@@H](CCCCN)C(=O)N[C@@H](CCC(=O)O)C(=O)N[C@@H](Cc1ccccc1)C(=O)N[C@H](C(=O)N[C@@H](C)C(=O)N[C@@H](Cc1c[nH]c2ccccc12)C(=O)N[C@@H](CC(C)C)C(=O)N[C@H](C(=O)N[C@@H](CCCCN)C(=O)NCC(=O)N[C@@H](CCCNC(=N)N)C(N)=O)C(C)C)[C@@H](C)CC)C(C)C)[C@@H](C)O)[C@@H](C)O [Compound 10] (H-HAE[Nle]TFTSDVSSYLEG[Cit]AAKEFIAWLVKGR-NH2; N-terminus assumed) |
